Assay results from patent US12661313B2, “Cosmetic composition” (MARY KAY INC., priority 2019, dated 2026).

Key:
[1] = tested on: procollagen-1; test: Collagen Stimulation Assay (PICP ELISA, Takara #MK101); assay type: cell-based; details: normal human adult epidermal fibroblasts treated 3 days, culture medium
Description: Collagens (types I, II, III, IV and V) are synthesized as precursor molecules called procollagens. These precursor molecules contain additional peptide sequences, usually called “propeptides”, at both the amino-terminal and the carboxy-terminal ends. During cellular expression and secretion, procollagens are assembled in the trimeric form and then cleaved at specific N- and C-terminal sites by specific endopeptidases, generating three fragments: procollagen-1 N-terminal propeptide (PINP), Type I collagen, and procollagen-1 carboxy-terminal propeptide (PICP).
The function of the propeptides is to facilitate the winding of procollagen molecules into a triple-helical conformation within the endoplasmic reticulum. […]
Quantitative detection of PICP in fibroblast cell extracts and culture supernatants was performed with an enzyme immunoassay kit (e.g., Takara #MK101) to assess the effects of the ingredients on the synthesis of PICP in skin. […] The assay employed the quantitative sandwich enzyme immunoassay technique whereby a monoclonal antibody specific for procollagen peptide was pre-coated onto a microplate. […] Color development was stopped and the intensity of the color at 450 nm was measured using a microplate reader. […]

[2] = target: T1, MMP-3 (Homo sapiens, UniProt P08254); test: Matrix Metalloproteinase 3 Enzyme Activity (MMP-3) Assay (BioMol AK-400); assay type: biochemical; details: thiopeptide chromogenic substrate, absorbance 412 nm
T1 construct: purchased BioMol International AK-400
T1 sequence (P08254 100-272 limits assumed): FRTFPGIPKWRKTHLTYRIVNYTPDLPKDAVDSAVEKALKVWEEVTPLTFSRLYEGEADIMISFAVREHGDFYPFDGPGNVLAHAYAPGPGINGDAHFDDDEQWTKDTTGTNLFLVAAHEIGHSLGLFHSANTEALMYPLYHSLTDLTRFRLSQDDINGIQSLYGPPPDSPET
Description: (§1) MMPs are extracellular proteases that play a role in many normal and disease states by virtue of their broad substrate specificity. MMP-3 substrates include collagens, fibronectins, and laminin; while MMP-9 substrates include collagen VII, fibronectins and laminin. Colorimetric Drug Discovery kits from BioMol International for MMP-3 (AK-400) and MMP-9 (AK-410) were used to measure protease activity of MMPs using a thiopeptide as a chromogenic substrate (Ac-PLG-[2-mercapto-4-methyl-pentanoyl]-LG-OC2H5)5,6. The MMP cleavage site peptide bond is replaced by a thioester bond in the thiopeptide. Hydrolysis of this bond by an MMP produces a sulfhydryl group, which reacts with DTNB [5,5′-dithiobis(2-nitrobenzoic acid), Ellman's reagent] to form 2-nitro-5-thiobenzoic acid, which can be detected by its absorbance at 412 nm (ε=13,600 M−1 cm−1 at pH 6.0 and above 7). It was determined that Rosmarinus officinalis leaf extract inhibited MMP-3 by 40%, Morus alba fruit extract inhibited by 29%, and tetrahexyldecyl ascorbate inhibited by 38%. It was determined that Rosmarinus officinalis leaf extract inhibited MMP-9 by 61%, Morus alba fruit extract inhibited by 84%, tetrahexyldecyl ascorbate inhibited by 11%, and Acmella oleracea extract inhibited by 80%.

[3] = tested on: IL-6; test: Inhibition of IL-6
[4] = target: T2, MMP-9 (Homo sapiens, UniProt P14780); test: Matrix Metalloproteinase 9 Enzyme Activity (MMP-9) Assay (BioMol AK-410); assay type: biochemical; details: thiopeptide chromogenic substrate, absorbance 412 nm
T2 construct: purchased BioMol International AK-410
T2 sequence (P14780 107-444 limits assumed): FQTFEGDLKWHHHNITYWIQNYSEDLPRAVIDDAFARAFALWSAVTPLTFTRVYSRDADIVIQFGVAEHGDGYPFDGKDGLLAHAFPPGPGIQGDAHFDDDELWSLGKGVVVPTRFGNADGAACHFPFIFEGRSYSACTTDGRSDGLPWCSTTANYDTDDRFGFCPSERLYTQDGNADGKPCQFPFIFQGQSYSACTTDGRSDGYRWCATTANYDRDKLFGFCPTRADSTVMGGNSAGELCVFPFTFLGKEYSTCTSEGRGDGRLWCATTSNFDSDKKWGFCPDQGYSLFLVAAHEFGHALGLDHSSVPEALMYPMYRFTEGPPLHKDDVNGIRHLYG
Description: as §1

[5] = tested on: TNF-α; test: Tumor Necrosis Factor Alpha (TNF-α) Assay (ELISA, PMA-treated keratinocytes); assay type: cell-based; details: normal human adult keratinocytes, PMA 10 ng/ml, 6 hours
Description: Tumor Necrosis Factor Alpha (TNF-α) Assay: Rosmarinus officinalis leaf extract and saccharide isomerate inhibit TNF-α activity. The prototype ligand of the TNF superfamily, TNF-α, is a pleiotropic cytokine that plays a central role in inflammation. Increase in its expression is associated with an up regulation in pro-inflammatory activity. The bioassay used analyzed the effect of Rosmarinus officinalis leaf extract and saccharide isomerate on the production of TNF-α by human epidermal keratinocytes. The endpoint of this assay was a spectrophotometric measurement that reflects the presence of TNF-α and cellular viability. The assay employed the quantitative sandwich enzyme immunoassay technique whereby a monoclonal antibody specific for TNF-α had been pre-coated onto a microplate.
Standards and samples were pipetted into wells of the microplate and any TNF-α present was bound by the immobilized antibody. After washing away any unbound substances, an enzyme-linked polyclonal antibody specific for TNF-α was added to the wells. Following a wash to remove any unbound antibody-enzyme reagent, a substrate solution was added to the wells and color developed in proportion to the amount of TNF-α bound in the initial step using a microplate reader for detection at 450 nm. The color development can be stopped and the intensity of the color was measured. […]

Compound	Increase Collagen Expression (procollagen-1), Change (%) [1] [%]	Inhibit MMP-3, Change (%) [2] [%]	Inhibit IL-6, Change (%) [3] [%]	Inhibit MMP-9, Change (%) [4] [%]	Inhibit TNF-α, Change (%) [5] [%]
CCCCCCCCC(CCCCCC)C(=O)OC[C@H](OC(=O)C(CCCCCC)CCCCCCCC)[C@H]1OC(=O)C(OC(=O)C(CCCCCC)CCCCCCCC)=C1OC(=O)C(CCCCCC)CCCCCCCC (some centres unmarked) [Tetrahexyldecyl ascorbate]	50	38	38	11	
Saccharide isomerate					88
